Experimental data published in patent US10617695B2, “Ophthalmic compositions containing alcaftadine” (Vistakon Pharmaceuticals, LLC, priority 2006, dated 2020).

Columns and labels:
[1] = target: T1, human histamine H4 receptor (Homo sapiens, UniProt Q9H3N8); assay: H4 receptor antagonist assay: shift of histamine EC50, Schild plot, in transfected SK-N-MC cells; assay type: cell-based
T1 construct: express a reporter gene construct and the human H4 receptor full-coding region; expressed in transfected cells; host or cells: SK-N-MC cells with a CRE-beta-galactosidase reporter
Method: Alcaftadine and 6,11-dihydro-11-(1-methyl-4-piperdinylidene)-5H-imidazo[2,1-b][3]benazepine-3-carboxylic acid (CAS #147083-93-0) were prepared at 10 mM in 100% dimethylsulfoxide (DMSO) for the binding assays and at 10 mM in Na/K phosphate buffer, pH 7.0, for the cellular assays. Cell pellets from SK-N-MC cells transfected with human H4 receptor were homogenized in 20 mM Tris-HCl/0.5 mM ethylendediaminetetraacetic acid (EDTA) pH 8.0 (TE buffer). Supernatants collected after centrifugation at 800 g were recentrifuged at 30,000 g for 30 min. Pellets were re-homogenized in TE buffer. […] Non-specific binding was defined with 100 μM cold histamine. […] Seven concentrations of compound were tested spanning 10^−11 to 10^−5 M with each concentration being run in triplicate. […] This assay was run twice and the results are reported as the average of the two runs. SK-N-MC cell lines were created that express a reporter gene construct and the human H4 receptor full-coding region. The reporter gene was β-galactosidase under the control of cyclic adenosine monophosphate (cAMP) responsive elements. Cells were plated in 96-well plates the night before the assay. Antagonists were added 10 min prior to the addition of histamine, which was added directly to the cell medium. Forskolin (5 μM final concentration) was added 10 min after the addition of histamine. Cells were returned to the incubator for 6 h at 37° C. The medium was then aspirated and cells were lysed with 25 μL of 0.1× assay buffer (10 mM sodium phosphate, pH 8, 0.2 mM MgSO4, 0.01 mM MnCl2) and incubated at room temperature for 10 min. […] Color was quantitated on a microplate reader at absorbance 570 nm. […]
To test whether alcaftadine or 6,11-dihydro-11-(1-methyl-4-piperdinylidene)-5H-imidazo[2,1-b][3]benazepine-3-carboxylic acid (CAS #147083-93-0) were antagonists of the H4 receptor, the ability of the compounds shift the EC50 of the histamine inhibition of forskolin-induced cAMP increases was assessed in SK-N-MC cells transfected with the human histamine H4 receptor. […]

[2] = tested on: guinea pigs systemically sensitized to rabbit skin squames and topically challenged with rabbit allergens; assay: Anti-allergic activity against acute-phase allergic conjunctivitis (edema and erythema) in sensitized guinea pigs; assay type: in vivo, guinea pig
Method: The effect of alcaftadine against acute-phase reactions of allergic conjunctivitis (edema and erythema) was compared to the effect of other known anti-allergens in guinea pigs that were systemically sensitized to rabbit skin squames and topically challenged 17 days later with rabbit allergens.
Anesthetized male albino guinea pigs (Dunkin-Hartley) weighing about 230 to 250 g were injected intramuscularly at the left quadriceps with 50 μl of purified rabbit allergens. The rabbit allergens consisted of Al(OH)3-adsorbed rabbit squames (Halab, Brussels, Belgium), which had been homogenized and washed clean of preservative (0.5% (V/V) phenol) with sterile physiologic saline.
Alcaftadine was […] administered to each eye in dosages ranging from 0.005 mg/kg to 1.0 mg/kg at 24 hours and 1 hour before challenge. Other test compounds included oxatomide, ketotifen, astemizole, cetirizine, loratadine and terfenadine, administered at dosages of 0.1 mg/kg and 1.0 mg/kg.
At day 17 post sensitization the left eye was challenged by instilling 25 μl of 100% normal rabbit serum. At the same time as the allergen challenge, the right eye was instilled with 25 μl of 1.5 mg/ml histamine dihydrochloride (98%, Sigma) dissolved in deionised, Millipore-filtered water.
Thirty minutes after challenge, edema and erythema were assessed in the tarsal and bulbar conjunctiva of both eyes and scored as absent (0), weak (1), moderate (2), severe (3), or very severe (4) by a trained technician.

[3] = Chemical stability of alcaftadine solution in non-sterilized or gamma irradiated LDPE bottles and glass vials (HPLC); assay type: physicochemical; settings: Glass Vials; 5° C.; 6 days

T1 sequence (Q9H3N8 whole entry): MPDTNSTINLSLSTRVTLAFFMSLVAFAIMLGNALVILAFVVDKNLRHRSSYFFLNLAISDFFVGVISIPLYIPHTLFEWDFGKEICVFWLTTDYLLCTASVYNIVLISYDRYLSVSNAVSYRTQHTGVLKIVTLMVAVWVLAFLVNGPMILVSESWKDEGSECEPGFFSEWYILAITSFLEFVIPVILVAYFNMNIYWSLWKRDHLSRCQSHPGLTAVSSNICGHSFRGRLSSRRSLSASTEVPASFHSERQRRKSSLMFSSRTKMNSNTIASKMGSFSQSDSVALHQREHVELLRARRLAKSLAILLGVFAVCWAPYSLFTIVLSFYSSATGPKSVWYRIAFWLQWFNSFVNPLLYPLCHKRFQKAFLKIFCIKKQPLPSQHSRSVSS

CN1CCC(=C2c3ccccc3CCn3c(C=O)cnc32)CC1 [Alcaftadine, 6,11-dihydro-11-(1-methyl-4-piperidinylidene)-5H-imidazo[2,1-b][3]benzazepine-3-carboxaldehyde]
mode of action at the receptor ([1]; parallel and rightward shifts in the histamine dose response curves): competitive antagonist
pA2 ([1]; x-intercept of the Schild plot): 5.6
dose from which acute allergic symptoms were significantly alleviated ([2]; dosed 24 hours and 1 hour before challenge, edema and erythema scored 30 minutes after challenge): 0.1 mg/kg
potency compared with astemizole, cetirizine and loratadine ([2]; on an equivalent mg/kg basis): significantly more potent
potency compared with oxatomide, ketotifen and terfenadine ([2]; on an equivalent mg/kg basis): more potent
Alcaftadine [3]: 2.52 mg/mL
Oxide [3]: 0.008%
